Source: PubChem BioAssay AID1259407 (Chemical Carcinogenesis Research Information System (CCRIS), 2018)
Calls of active or inactive are those of the source. The rule behind the calls is not given here.

Tested on: CCRIS mutagenicity, Ames/micronucleus/aberration tests
Test: CCRIS mutagenicity studies
[1] = Test System: AMES SALMONELLA TYPHIMURIUM, Strain/Indicator: TA98, Metabolic Activation: NONE, Method: STANDARD PLATE
[2] = Test System: AMES SALMONELLA TYPHIMURIUM, Strain/Indicator: TA100, Metabolic Activation: NONE, Method: STANDARD PLATE
[3] = Test System: MOUSE LYMPHOMA, Strain/Indicator: L5178Y (TK+/TK-), Metabolic Activation: NONE, Method: SUSPENSION/PLATE
[4] = Test System: AMES SALMONELLA TYPHIMURIUM, Strain/Indicator: TA98, Metabolic Activation: NONE, Method: PREINCUBATION
[5] = Test System: AMES SALMONELLA TYPHIMURIUM, Strain/Indicator: TA100, Metabolic Activation: NONE, Method: PREINCUBATION

With `C[Si](C)(C)O[Si](C)(C)C` the mutagenic call [1] was “inactive; negative”, the mutagenic call (Test System: AMES SALMONELLA TYPHIMURIUM, Strain/Indicator: TA98, Metabolic Activation: RAT LIVER S-9, AROCLOR 1254, Method: STANDARD PLATE) was “inactive; negative” and the mutagenic call [2] was “inactive; negative”. For the same compound, the mutagenic call (Test System: AMES SALMONELLA TYPHIMURIUM, Strain/Indicator: TA100, Metabolic Activation: RAT LIVER S-9, AROCLOR 1254, Method: STANDARD PLATE) was “inactive; negative”, the mutagenic call (Test System: AMES SALMONELLA TYPHIMURIUM, Strain/Indicator: TA1535, Metabolic Activation: NONE, Method: STANDARD PLATE) was “inactive; negative” and the mutagenic call (Test System: AMES SALMONELLA TYPHIMURIUM, Strain/Indicator: TA1535, Metabolic Activation: RAT LIVER S-9, AROCLOR 1254, Method: STANDARD PLATE) was “inactive; negative”. For the same compound, the mutagenic call (Test System: AMES SALMONELLA TYPHIMURIUM, Strain/Indicator: TA1537, Metabolic Activation: NONE, Method: STANDARD PLATE) was “inactive; negative”, the mutagenic call (Test System: AMES SALMONELLA TYPHIMURIUM, Strain/Indicator: TA1537, Metabolic Activation: RAT LIVER S-9, AROCLOR 1254, Method: STANDARD PLATE) was “inactive; negative” and the mutagenic call (Test System: AMES SALMONELLA TYPHIMURIUM, Strain/Indicator: TA1538, Metabolic Activation: NONE, Method: STANDARD PLATE) was “inactive; negative”. For the same compound, the mutagenic call (Test System: AMES SALMONELLA TYPHIMURIUM, Strain/Indicator: TA1538, Metabolic Activation: RAT LIVER S-9, AROCLOR 1254, Method: STANDARD PLATE) was “inactive; negative”, the mutagenic call (Test System: E. COLI, Strain/Indicator: P3078 POLA, Metabolic Activation: NONE, Method: SPOT TEST) was “inactive; negative” and the mutagenic call (Test System: E. COLI, Strain/Indicator: P3078 POLA, Metabolic Activation: RAT LIVER S-9, AROCLOR 1254, Method: SPOT TEST) was “inactive; negative”. For the same compound, the mutagenic call (Test System: E. COLI, Strain/Indicator: W3110, Metabolic Activation: NONE, Method: SPOT TEST) was “inactive; negative”, the mutagenic call (Test System: E. COLI, Strain/Indicator: W3110, Metabolic Activation: RAT LIVER S-9, AROCLOR 1254, Method: SPOT TEST) was “inactive; negative” and the mutagenic call [3] was “inactive; negative”. The mutagenic call (Test System: MOUSE LYMPHOMA, Strain/Indicator: L5178Y (TK+/TK-), Metabolic Activation: RAT, LIVER, S-9, Method: SUSPENSION/PLATE) was “inactive; negative”.

For `Nc1ccccc1Cl`, the mutagenic call (Test System: AMES SALMONELLA TYPHIMURIUM, Strain/Indicator: TA97, Metabolic Activation: HAMSTER, LIVER, S-9, AROCLOR 1254 (10%), Method: PREINCUBATION) was “inactive; negative”, the mutagenic call (Test System: AMES SALMONELLA TYPHIMURIUM, Strain/Indicator: TA97, Metabolic Activation: HAMSTER, LIVER, S-9, AROCLOR 1254 (30%), Method: PREINCUBATION) was “inactive; negative” and the mutagenic call (Test System: AMES SALMONELLA TYPHIMURIUM, Strain/Indicator: TA97, Metabolic Activation: NONE, Method: PREINCUBATION) was “inactive; negative”. For the same compound, the mutagenic call (Test System: AMES SALMONELLA TYPHIMURIUM, Strain/Indicator: TA97, Metabolic Activation: RAT, LIVER, S-9, AROCLOR 1254 (10%), Method: PREINCUBATION) was “inactive; negative”, the mutagenic call (Test System: AMES SALMONELLA TYPHIMURIUM, Strain/Indicator: TA97, Metabolic Activation: RAT, LIVER, S-9, AROCLOR 1254 (30%), Method: PREINCUBATION) was “inactive; negative” and the mutagenic call (Test System: AMES SALMONELLA TYPHIMURIUM, Strain/Indicator: TA98, Metabolic Activation: HAMSTER, LIVER, S-9, AROCLOR 1254 (10%), Method: PREINCUBATION) was “inactive; negative”. For the same compound, the mutagenic call (Test System: AMES SALMONELLA TYPHIMURIUM, Strain/Indicator: TA98, Metabolic Activation: HAMSTER, LIVER, S-9, AROCLOR 1254 (30%), Method: PREINCUBATION) was “inactive; negative”, the mutagenic call [4] was “inactive; negative” and the mutagenic call (Test System: AMES SALMONELLA TYPHIMURIUM, Strain/Indicator: TA98, Metabolic Activation: RAT, LIVER, S-9, AROCLOR 1254 (10%), Method: PREINCUBATION) was “inactive; negative”. The mutagenic call (Test System: AMES SALMONELLA TYPHIMURIUM, Strain/Indicator: TA98, Metabolic Activation: RAT, LIVER, S-9, AROCLOR 1254 (30%), Method: PREINCUBATION) was “inactive; negative”, the mutagenic call (Test System: AMES SALMONELLA TYPHIMURIUM, Strain/Indicator: TA100, Metabolic Activation: HAMSTER, LIVER, S-9, AROCLOR 1254 (10%), Method: PREINCUBATION) was “inactive; negative” and the mutagenic call (Test System: AMES SALMONELLA TYPHIMURIUM, Strain/Indicator: TA100, Metabolic Activation: HAMSTER, LIVER, S-9, AROCLOR 1254 (30%), Method: PREINCUBATION) was “inactive; negative”. For the same compound, the mutagenic call [5] was “inactive; negative”, the mutagenic call (Test System: AMES SALMONELLA TYPHIMURIUM, Strain/Indicator: TA100, Metabolic Activation: RAT, LIVER, S-9, AROCLOR 1254 (10%), Method: PREINCUBATION) was “inactive; negative” and the mutagenic call (Test System: AMES SALMONELLA TYPHIMURIUM, Strain/Indicator: TA100, Metabolic Activation: RAT, LIVER, S-9, AROCLOR 1254 (30%), Method: PREINCUBATION) was “inactive; negative”. The mutagenic call (Test System: AMES SALMONELLA TYPHIMURIUM, Strain/Indicator: TA1535, Metabolic Activation: HAMSTER, LIVER, S-9, AROCLOR 1254 (10%), Method: PREINCUBATION) was “inactive; negative”, the mutagenic call (Test System: AMES SALMONELLA TYPHIMURIUM, Strain/Indicator: TA1535, Metabolic Activation: HAMSTER, LIVER, S-9, AROCLOR 1254 (30%), Method: PREINCUBATION) was “inactive; negative” and the mutagenic call (Test System: AMES SALMONELLA TYPHIMURIUM, Strain/Indicator: TA1535, Metabolic Activation: NONE, Method: PREINCUBATION) was “inactive; negative”. The mutagenic call (Test System: AMES SALMONELLA TYPHIMURIUM, Strain/Indicator: TA1535, Metabolic Activation: RAT, LIVER, S-9, AROCLOR 1254 (10%), Method: PREINCUBATION) was “inactive; negative”, the mutagenic call (Test System: AMES SALMONELLA TYPHIMURIUM, Strain/Indicator: TA1535, Metabolic Activation: RAT, LIVER, S-9, AROCLOR 1254 (30%), Method: PREINCUBATION) was “inactive; negative” and the mutagenic call (Test System: CHINESE HAMSTER V-79, Strain/Indicator: V-79/8-AZAGUANINE, Metabolic Activation: NONE, Method: SUSPENSION/PLATE) was “active; positive”. For the same compound, the mutagenic call (Test System: CHINESE HAMSTER V-79, Strain/Indicator: V-79/OUABAIN, Metabolic Activation: NONE, Method: SUSPENSION/PLATE) was “inactive; negative”, the mutagenic call [3] was “inactive; negative” and the mutagenic call (Test System: MOUSE LYMPHOMA, Strain/Indicator: L5178Y (TK+/TK-), Metabolic Activation: RAT, LIVER, S-9, AROCLOR 1254, Method: SUSPENSION/PLATE) was “active; positive”. The mutagenic call (Test System: UDS RODENT HEPATOCYTES, Strain/Indicator: THY INCORP (NON-S-PHASE), Metabolic Activation: NONE, Method: AUTORADIOGRAPHY) was “inactive; negative”.

For `CCn1nc(C(=O)O)c(=O)c2cc3c(cc21)OCO3`, the mutagenic call (Test System: AMES SALMONELLA TYPHIMURIUM, Strain/Indicator: TA102, Metabolic Activation: NONE, Method: STANDARD PLATE) was “active; positive”.

`COC(=O)c1occ(-c2ccccc2)c1-c1ccccc1` was tested, and the mutagenic call [1] was “inactive; negative” and the mutagenic call [2] was “inactive; negative”.

In the case of `C[C@H](CCC(=O)O)[C@H]1CC[C@H]2[C@@H]3CC[C@@H]4C[C@H](O)CC[C@]4(C)[C@H]3C[C@@H](O)[C@]12C`, the mutagenic call (Test System: AMES SALMONELLA TYPHIMURIUM, Strain/Indicator: TA98, Metabolic Activation: NONE, Method: FLUCTUATION TEST) is reported as “inactive; negative”, the mutagenic call [4] is reported as “inactive; negative” and the mutagenic call (Test System: AMES SALMONELLA TYPHIMURIUM, Strain/Indicator: TA98, Metabolic Activation: RAT, LIVER, S-9, PCB, Method: PREINCUBATION) is reported as “inactive; negative”. For the same compound, the mutagenic call (Test System: AMES SALMONELLA TYPHIMURIUM, Strain/Indicator: TA100, Metabolic Activation: NONE, Method: FLUCTUATION TEST) was “inactive; negative”.

In the case of `O=C(O)/C(Cl)=C(\CCl)C(Cl)Cl`, the mutagenic call [4] is reported as “active; positive”, the mutagenic call [5] is reported as “active; positive” and the mutagenic call (Test System: AMES SALMONELLA TYPHIMURIUM, Strain/Indicator: TA104, Metabolic Activation: NONE, Method: PREINCUBATION) is reported as “active; positive”.
